# Laboratory results as given in patent US11571411B2, “Use of a bisamide derivative of malonic acid for treating allergic and other diseases in humans and animals” (PHARMENTERPRISES ALLERGY LLC, priority 2018, dated 2023).
# Tested on: histamine-induced nasal congestion model
# Assay: Histamine-induced nasal congestion model in dogs, oral administration
# Assay type: in vivo, Beagle dogs
# Description: A histamine-induced nasal congestion model in dogs was performed according to the standard procedure [Tiniakov R. L., Tiniakova O. P., McLeod R. L., Hey J. A., Yeates D. B. Canine model of nasal congestion and allergic rhinitis//J Appl Physiol. 2003. V.94(5). P.1821-1828]. Beagle dogs were injected in the nasal cavity with a 5% histamine solution in a volume of 250 μl/nostril. The volume of the nasal cavity of the right and left nostrils was measured using a rhinometer before and 5, 10, 15, 20, 30, 40, 50 and 60 minutes after administration of histamine. Three experiments were performed, in which Compound I was administered orally once at different times: 1) 30 minutes before administration of histamine; 2) 1 hour before administration of histamine; and 3) 6 hours before administration of histamine, and one experiment was performed, in which Compound I was administered orally once daily for 14 days, the last administration was carried out 1 hour before administration of histamine.
# [1] = oral 1 hour before histamine, 0.005 mg/kg, 5 minutes after histamine
# [2] = oral 1 hour before histamine, 0.005 mg/kg, 10 minutes after histamine
# [3] = oral 1 hour before histamine, 0.005 mg/kg, 15 minutes after histamine
# [4] = oral 1 hour before histamine, 0.005 mg/kg, 20 minutes after histamine
# [5] = oral 1 hour before histamine, 0.005 mg/kg, 30 minutes after histamine
# [6] = oral 1 hour before histamine, 0.005 mg/kg, 40 minutes after histamine
# [7] = oral 1 hour before histamine, 0.005 mg/kg, 50 minutes after histamine
# [8] = oral 1 hour before histamine, 0.005 mg/kg, 60 minutes after histamine
# [9] = oral 1 hour before histamine, 0.005 mg/kg, before histamine administration
# [10] = oral 1 hour before histamine, 0.05 mg/kg, 5 minutes after histamine
# [11] = oral 1 hour before histamine, 0.05 mg/kg, 10 minutes after histamine
# [12] = oral 1 hour before histamine, 0.05 mg/kg, 15 minutes after histamine
# [13] = oral 1 hour before histamine, 0.05 mg/kg, 20 minutes after histamine
# [14] = oral 1 hour before histamine, 0.05 mg/kg, 30 minutes after histamine
# [15] = oral 1 hour before histamine, 0.05 mg/kg, 40 minutes after histamine
# [16] = oral 1 hour before histamine, 0.05 mg/kg, 50 minutes after histamine
# [17] = oral 1 hour before histamine, 0.05 mg/kg, 60 minutes after histamine
# [18] = oral 1 hour before histamine, 0.05 mg/kg, before histamine administration
# [19] = oral 1 hour before histamine, 0.54 mg/kg, 5 minutes after histamine
# [20] = oral 1 hour before histamine, 0.54 mg/kg, 10 minutes after histamine
# [21] = oral 1 hour before histamine, 0.54 mg/kg, 15 minutes after histamine
# [22] = oral 1 hour before histamine, 0.54 mg/kg, 20 minutes after histamine
# [23] = oral 1 hour before histamine, 0.54 mg/kg, 30 minutes after histamine
# [24] = oral 1 hour before histamine, 0.54 mg/kg, 40 minutes after histamine
# [25] = oral 1 hour before histamine, 0.54 mg/kg, 50 minutes after histamine
# [26] = oral 1 hour before histamine, 0.54 mg/kg, 60 minutes after histamine
# [27] = oral 1 hour before histamine, 0.54 mg/kg, before histamine administration
# [28] = oral 6 hours before histamine, 0.005 mg/kg, 5 minutes after histamine
# [29] = oral 6 hours before histamine, 0.005 mg/kg, 10 minutes after histamine
# [30] = oral 6 hours before histamine, 0.005 mg/kg, 15 minutes after histamine
# [31] = oral 6 hours before histamine, 0.005 mg/kg, 20 minutes after histamine
# [32] = oral 6 hours before histamine, 0.005 mg/kg, 30 minutes after histamine
# [33] = oral 6 hours before histamine, 0.005 mg/kg, 40 minutes after histamine
# [34] = oral 6 hours before histamine, 0.005 mg/kg, 50 minutes after histamine
# [35] = oral 6 hours before histamine, 0.005 mg/kg, 60 minutes after histamine
# [36] = oral 6 hours before histamine, 0.005 mg/kg, before histamine administration
# [37] = oral 6 hours before histamine, 0.05 mg/kg, 5 minutes after histamine
# [38] = oral 6 hours before histamine, 0.05 mg/kg, 10 minutes after histamine
# [39] = oral 6 hours before histamine, 0.05 mg/kg, 15 minutes after histamine
# [40] = oral 6 hours before histamine, 0.05 mg/kg, 20 minutes after histamine
# [41] = oral 6 hours before histamine, 0.05 mg/kg, 30 minutes after histamine
# [42] = oral 6 hours before histamine, 0.05 mg/kg, 40 minutes after histamine
# [43] = oral 6 hours before histamine, 0.05 mg/kg, 50 minutes after histamine
# [44] = oral 6 hours before histamine, 0.05 mg/kg, 60 minutes after histamine
# [45] = oral 6 hours before histamine, 0.05 mg/kg, before histamine administration
# [46] = oral 6 hours before histamine, 0.54 mg/kg, 5 minutes after histamine
# [47] = oral 6 hours before histamine, 0.54 mg/kg, 10 minutes after histamine
# [48] = oral 6 hours before histamine, 0.54 mg/kg, 15 minutes after histamine
# [49] = oral 6 hours before histamine, 0.54 mg/kg, 20 minutes after histamine
# [50] = oral 6 hours before histamine, 0.54 mg/kg, 30 minutes after histamine
compound,measurement,setting,value
"O=C(CC(=O)NCCc1cnc[nH]1)NCCc1cnc[nH]1 [Compound I, N,N′-bis(2-(1H-imidazol-5-yl)ethyl)malonamide]",onset of the therapeutic effect,"after a single oral administration, dogs",≤ 30 min
same,"Volume of the nasal cavity, left nostril",[1],3.1 ± 0.2$ cm^3
same,"Volume of the nasal cavity, right nostril",[1],3.1 ± 0.5$ cm^3
same,"Volume of the nasal cavity, left nostril",[2],2.4 ± 0.4$ cm^3
same,"Volume of the nasal cavity, right nostril",[2],2.1 ± 0.1$ cm^3
same,"Volume of the nasal cavity, left nostril",[3],2.2 ± 0.2$ cm^3
same,"Volume of the nasal cavity, right nostril",[3],2.8 ± 0.5$ cm^3
same,"Volume of the nasal cavity, left nostril",[4],2.3 ± 0.14$ cm^3
same,"Volume of the nasal cavity, right nostril",[4],2.6 ± 0.4$ cm^3
same,"Volume of the nasal cavity, left nostril",[5],2.0 ± 0.2$ cm^3
same,"Volume of the nasal cavity, right nostril",[5],3.0 ± 0.5$ cm^3
same,"Volume of the nasal cavity, left nostril",[6],3.6 ± 0.2 cm^3
same,"Volume of the nasal cavity, right nostril",[6],3.4 ± 0.2$ cm^3
same,"Volume of the nasal cavity, left nostril",[7],3.3 ± 0.2$ cm^3
same,"Volume of the nasal cavity, right nostril",[7],3.7 ± 0.24$ cm^3
same,"Volume of the nasal cavity, left nostril",[8],3.4 ± 0.1$ cm^3
same,"Volume of the nasal cavity, right nostril",[8],3.5 ± 0.2$ cm^3
same,"Volume of the nasal cavity, left nostril",[9],3.9 ± 0.2 cm^3
same,"Volume of the nasal cavity, right nostril",[9],4.3 ± 0.2 cm^3
same,"Volume of the nasal cavity, left nostril",[10],2.8 ± 0.1$ cm^3
same,"Volume of the nasal cavity, right nostril",[10],2.8 ± 0.3$ cm^3
same,"Volume of the nasal cavity, left nostril",[11],3.1 ± 0.24$ cm^3
same,"Volume of the nasal cavity, right nostril",[11],3.5 ± 0.24$ cm^3
same,"Volume of the nasal cavity, left nostril",[12],3.1 ± 0.14$ cm^3
same,"Volume of the nasal cavity, right nostril",[12],2.6 ± 0.2$ cm^3
same,"Volume of the nasal cavity, left nostril",[13],2.5 ± 0.14$ cm^3
same,"Volume of the nasal cavity, right nostril",[13],2.5 ± 0.14$ cm^3
same,"Volume of the nasal cavity, left nostril",[14],3.6 ± 0.24 cm^3
same,"Volume of the nasal cavity, right nostril",[14],3.5 ± 0.24 cm^3
same,"Volume of the nasal cavity, left nostril",[15],3.7 ± 0.34 cm^3
same,"Volume of the nasal cavity, right nostril",[15],3.7 ± 0.24 cm^3
same,"Volume of the nasal cavity, left nostril",[16],3.2 ± 0.1$ cm^3
same,"Volume of the nasal cavity, right nostril",[16],3.2 ± 0.1$ cm^3
same,"Volume of the nasal cavity, left nostril",[17],3.2 ± 0.1$ cm^3
same,"Volume of the nasal cavity, right nostril",[17],3.5 ± 0.1$ cm^3
same,"Volume of the nasal cavity, left nostril",[18],4.0 ± 0.3 cm^3
same,"Volume of the nasal cavity, right nostril",[18],4.2 ± 0.2 cm^3
same,"Volume of the nasal cavity, left nostril",[19],2.6 ± 0.1$ cm^3
same,"Volume of the nasal cavity, right nostril",[19],3.0 ± 0.4$ cm^3
same,"Volume of the nasal cavity, left nostril",[20],3.4 ± 0.14$ cm^3
same,"Volume of the nasal cavity, right nostril",[20],3.0 ± 0.24$ cm^3
same,"Volume of the nasal cavity, left nostril",[21],2.5 ± 0.2$ cm^3
same,"Volume of the nasal cavity, right nostril",[21],3.0 ± 0.24$ cm^3
same,"Volume of the nasal cavity, left nostril",[22],2.5 ± 0.24$ cm^3
same,"Volume of the nasal cavity, right nostril",[22],2.8 ± 0.34$ cm^3
same,"Volume of the nasal cavity, left nostril",[23],3.8 ± 0.24 cm^3
same,"Volume of the nasal cavity, right nostril",[23],3.6 ± 0.24$ cm^3
same,"Volume of the nasal cavity, left nostril",[24],3.6 ± 0.14$ cm^3
same,"Volume of the nasal cavity, right nostril",[24],3.6 ± 0.24$ cm^3
same,"Volume of the nasal cavity, left nostril",[25],3.3 ± 0.3$ cm^3
same,"Volume of the nasal cavity, right nostril",[25],3.4 ± 0.1$ cm^3
same,"Volume of the nasal cavity, left nostril",[26],3.3 ± 0.2$ cm^3
same,"Volume of the nasal cavity, right nostril",[26],3.2 ± 0.2$ cm^3
same,"Volume of the nasal cavity, left nostril",[27],4.1 ± 0.1 cm^3
same,"Volume of the nasal cavity, right nostril",[27],4.4 ± 0.1 cm^3
same,"Volume of the nasal cavity, left nostril",[28],2.0 ± 0.3$ cm^3
same,"Volume of the nasal cavity, right nostril",[28],2.1 ± 0.3$ cm^3
same,"Volume of the nasal cavity, left nostril",[29],1.9 ± 0.1$ cm^3
same,"Volume of the nasal cavity, right nostril",[29],2.0 ± 0.1$ cm^3
same,"Volume of the nasal cavity, left nostril",[30],2.4 ± 0.24$ cm^3
same,"Volume of the nasal cavity, right nostril",[30],2.4 ± 0.14$ cm^3
same,"Volume of the nasal cavity, left nostril",[31],3.2 ± 0.24$ cm^3
same,"Volume of the nasal cavity, right nostril",[31],3.2 ± 0.24$ cm^3
same,"Volume of the nasal cavity, left nostril",[32],3.3 ± 0.14$ cm^3
same,"Volume of the nasal cavity, right nostril",[32],3.4 ± 0.14$ cm^3
same,"Volume of the nasal cavity, left nostril",[33],3.3 ± 0.2$ cm^3
same,"Volume of the nasal cavity, right nostril",[33],3.4 ± 0.1$ cm^3
same,"Volume of the nasal cavity, left nostril",[34],3.4 ± 0.1$ cm^3
same,"Volume of the nasal cavity, right nostril",[34],3.5 ± 0.2$ cm^3
same,"Volume of the nasal cavity, left nostril",[35],3.6 ± 0.2$ cm^3
same,"Volume of the nasal cavity, right nostril",[35],3.4 ± 0.2$ cm^3
same,"Volume of the nasal cavity, left nostril",[36],4.4 ± 0.1 cm^3
same,"Volume of the nasal cavity, right nostril",[36],4.4 ± 0.2 cm^3
same,"Volume of the nasal cavity, left nostril",[37],2.2 ± 0.1$ cm^3
same,"Volume of the nasal cavity, right nostril",[37],2.2 ± 0.2$ cm^3
same,"Volume of the nasal cavity, left nostril",[38],2.4 ± 0.2$ cm^3
same,"Volume of the nasal cavity, right nostril",[38],2.3 ± 0.2$ cm^3
same,"Volume of the nasal cavity, left nostril",[39],2.0 ± 0.24$ cm^3
same,"Volume of the nasal cavity, right nostril",[39],2.0 ± 0.14$ cm^3
same,"Volume of the nasal cavity, left nostril",[40],3.4 ± 0.14$ cm^3
same,"Volume of the nasal cavity, right nostril",[40],3.2 ± 0.24$ cm^3
same,"Volume of the nasal cavity, left nostril",[41],3.4 ± 0.24$ cm^3
same,"Volume of the nasal cavity, right nostril",[41],3.4 ± 0.14$ cm^3
same,"Volume of the nasal cavity, left nostril",[42],3.1 ± 0.1$ cm^3
same,"Volume of the nasal cavity, right nostril",[42],3.1 ± 0.1$ cm^3
same,"Volume of the nasal cavity, left nostril",[43],3.4 ± 0.1$ cm^3
same,"Volume of the nasal cavity, right nostril",[43],3.4 ± 0.1$ cm^3
same,"Volume of the nasal cavity, left nostril",[44],3.6 ± 0.1$ cm^3
same,"Volume of the nasal cavity, right nostril",[44],3.5 ± 0.1$ cm^3
same,"Volume of the nasal cavity, left nostril",[45],4.2 ± 0.2 cm^3
same,"Volume of the nasal cavity, right nostril",[45],4.1 ± 0.1 cm^3
same,"Volume of the nasal cavity, left nostril",[46],2.7 ± 0.2$ cm^3
same,"Volume of the nasal cavity, right nostril",[46],2.7 ± 0.3$ cm^3
same,"Volume of the nasal cavity, left nostril",[47],2.8 ± 0.24$ cm^3
same,"Volume of the nasal cavity, right nostril",[47],2.8 ± 0.24$ cm^3
same,"Volume of the nasal cavity, left nostril",[48],2.8 ± 0.14$ cm^3
same,"Volume of the nasal cavity, right nostril",[48],2.8 ± 0.24$ cm^3
same,"Volume of the nasal cavity, left nostril",[49],3.4 ± 0.14$ cm^3
same,"Volume of the nasal cavity, right nostril",[49],3.5 ± 0.14$ cm^3
same,"Volume of the nasal cavity, left nostril",[50],3.5 ± 0.24$ cm^3
same,"Volume of the nasal cavity, right nostril",[50],3.4 ± 0.14$ cm^3
